From publication PMC7669869, “AdipoR1/AdipoR2 dual agonist recovers nonalcoholic steatohepatitis and related fibrosis via endoplasmic reticulum-mitochondria axis” (Nature Communications, 2020) come the findings set out here.

For test [1], the system named is HFD induced NASH mice. The experiment in a line: HFD induced NASH (NAFLD) mice: weight gain, liver appearance. Type of test: in vivo, mouse. As to conditions: JT003 500 μg kg−1 i.p. daily 4 weeks, vs HFD, in words. As for the experimental part: Male C57BL/6J mice of 6–8 weeks of age (20–24 g) were used in these experiments including the NAFLD model and liver fibrosis model. The mice were purchased from Guangdong Medical Laboratory Animal Center and housed in standard isolator cages and maintained on a room temperature of 25 °C and a 12 h:12 h light/dark cycle. At the end of the experiments, mice were fasted 8 h prior to sacrifice. Liver tissue and/or epididymal adipose tissue were flash frozen in liquid nitrogen (with or without RNAlater (TransGen Biotech, China)) and stored at −80 °C for future use, or fixed in 10% paraformaldehyde for histological assays. Blood samples were obtained from the posterior venous plexus of the eyes of anesthetized mice, Blood was separated by centrifugation at 1000g for 15 min Serum was then stored at −80 °C. The ethical approval has been obtained from Animal Care and Use Committee of the Sun Yat-sen University. All animals were maintained in pathogen-free conditions and cared for in accordance with policies and certification of the Association for Assessment and Accreditation of Laboratory Animal Care International (AAALAC International).
The NASH model was conducted with feeding a HFD for 16 weeks combine with a MCD diet (Methionine/Choline Deficient Diet, Medicience, China) in the last 4 weeks. […]

Test [2] deals with HepG2 cells. The test is described as follows: PA induced lipid accumulation, Oil Red O staining. Type of test: cell-based, human. The conditions noted are these: HepG2, 0.25 mM PA + 200 μM peptide, 24 h; in words. The protocol: Hepatoma carcinoma cell line HepG2 and human hepatic activated stellate cell line LX2 used in this study were purchased from Type Culture Collection of the Chinese Academy of Sciences (Shanghai, China). Cells were cultured in Dulbecco’s modified Eagle’s medium (DMEM) with 10% fetal bovine serum (FBS), supplemented with 1% penicillin–streptomycin (ThermoFisher Scientific, USA) at 37 °C in a humidified atmosphere of 5% CO2. In PA (Sigma, USA) induced lipid accumulation cell model, HepG2 cells were seeded into a 6-well plate at 5E5 cells per well. 0.25 mM PA and/or 200 μM candidate peptides were co-incubated with cells for 24 h. Then Oil Red O staining was performed to evaluate the accumulation of lipid droplets. BSA (Sigma, USA) was used in this experiment as the negative control. For LX2 cells, 2E5 cells were seeded, then the adherent cells were exposed to 200 μM candidate peptides for another 48 h. Next, the cell protein was obtained and western blotting was performed. Candidate peptides were diluted in DMEM in a stock concentration of 1 M.

Non-standard residues stand in square brackets, D forms with d. Residues, ends and D or L forms follow the SMILES beside them. Nva = CCC[C@H](N)C(=O)O

Take `CCC[C@H](NC(=O)[C@@H]1CCCN1)C(=O)N[C@@H](CC(C)C)C(=O)N[C@@H](Cc1ccc(O)cc1)C(=O)N[C@@H](Cc1ccc(O)cc1)C(=O)N[C@@H](Cc1ccccc1)C(=O)N[C@@H](C)C(N)=O` [JT003] (H-P[Nva]LYYFA-NH2): the weight gain entry in test [1] is on record as “significantly reduced the weight gain”. Besides, in test [2], the “lipid droplets accumulation caused by PA (Oil Red O)” value is reported as “exhibited the best potential”.
